Reference: article PMC12040169 (PLOS Biology, 2025)

Test: in vitro
Conditions: human, hela cells, % viability

Point of comparison: `COc1ccc([C@@]23CC[C@@H](NC(=O)Nc4cc(C)nc(C)c4)C[C@@H]2N(C)CC3)cc1OC` [CBK045876], viability at 28.5 h, 10 µM 90.9%. Against it:
- CC(C)Nc1nc2ccccc2nc1OCCC#N [CBK115735] — higher, 103%
- O=C1C(c2ccccc2)=C(c2ccccc2)C(c2ccc(C3=C(c4ccccc4)C(=O)C(c4ccccc4)=C3c3ccccc3)cc2)=C1c1ccccc1 [CBK261220] — lower, 87.4%
- O=C(CSc1ccc(-n2ccnc2)nn1)Nc1cccnc1 [CBK287635] — higher, 97.6%
- COc1ccccc1CNCc1ccccc1OC [CBK262168] — higher, 106%
- O=C(c1c[nH]c(-c2ncn[nH]2)c1)c1ccc(Cl)cc1Cl [CBK008334] — higher, 93.4%
- OCC[C@H]1CN2CCCC2CN1Cc1cccc(Cl)c1Cl (stereo partly drawn) [CBK285429] — lower, 86.6%
- O=C(COc1ccc2ccccc2c1)OCC(=O)c1ccc([N+](=O)[O-])cc1 [CBK261586] — lower, 88.2%
- CCN1CCN(Cc2c(C(F)(F)F)[nH]c3ncccc23)CC1 [CBK285362] — higher, 95.2%
- O=C(O)CCCC(=O)Nc1ccc([N+](=O)[O-])cc1O [CBK267384] — higher, 102%
- O=C1N(c2ccc(Cl)cc2)Cc2nc(=O)[nH]n21 [CBK287899] — higher, 91.6%
- CC(=O)Nc1ccc(C(=O)CSc2nnc(C)o2)cc1 [CBK267851] — higher, 107%
- CC1=C[C@@H](CNS(C)(=O)=O)[C@H](C(C)C)C[C@H]1CC(=O)Nc1ccccn1 [CBK289208] — lower, 89.3%
- CCCN1CCC2CN(CCCC(=O)c3ccc(F)cc3)CCN2C1=O (stereo not drawn) [CBK024882C] — higher, 101%
- O=C(O)CC(C(=O)O)N1C(=O)/C(=C\C(Cl)=C/c2ccc([N+](=O)[O-])cc2)SC1=S (stereo not drawn) [CBK261013] — higher, 99.2%
- COc1ccc(-c2cc(C(=O)NCc3ccc(N)cc3)cnc2-c2cccc(C)c2)cc1 [CBK036728] — higher, 106%
- COc1ccc(S(=O)(=O)N(C)CC(=O)O)cc1C [CBK267176] — higher, 108%
- Cc1cc(-c2ccc(=O)n(CCNC(=O)C3CCCCC3)n2)c(C)o1 [CBK284522] — higher, 95.7%
- CCC(Sc1nccn1C)C(=O)Nc1ccc(S(N)(=O)=O)cc1 (stereo not drawn) [CBK058413] — higher, 107%
- CC(C)c1noc(NCc2nnc3n2CCCCC3)n1 [CBK306352] — higher, 113%
- Cc1cc(=O)n(CC(=O)NC(C)Cc2ccccn2)c2ccccc12 (stereo not drawn) [CBK281420] — lower, 90.3%
- Cc1cccc(NC(=O)C(c2ccccc2)N2CCOCC2)c1 (stereo not drawn) [CBK269331] — higher, 103%
- CC(C)c1nccn1CC(=O)NCCOc1ccc(F)cc1 [CBK281597] — lower, 89.6%
- Cc1cccc(NC(=O)C(Cc2ccccc2)C(=O)Nc2cccc(C)c2)c1 [CBK266899] — higher, 91.9%
- CC(C)(C)C(=O)Nc1ccc(F)c(C(=O)N2CCc3[nH]ncc3C2)c1 [CBK305303] — higher, 104%
- CCCCSc1nc(N)cc(N2CCN3C(=O)CN(C)C(=O)C3C2)n1 (stereo not drawn) [CBK306940] — lower, 82.4%
- Cc1cccc(C)c1OCC(=O)Nc1c[nH]c(=O)[nH]c1=O [CBK263358] — lower, 46.2%
- CC(NC(=O)n1ccc2c(N3CCNCC3)cccc21)c1ccccc1 (stereo not drawn) [CBK003729C] — lower, 90.7%
- CCC(=O)NCCc1cc2ccc(C)cc2[nH]c1=O [CBK287434] — higher, 92.4%
- CN1CCN(Cc2ccc(-c3ccc(C(N)=O)cc3)nc2)CC1 [CBK306750] — lower, 87.3%
- Cc1nc(C)c(C(=O)N2CCc3[nH]c4ccccc4c3C2)o1 [CBK281873] — higher, 110%
- Cc1cc(O)cc(C2CCCN(C(=O)c3cccc(F)c3)C2)n1 (stereo not drawn) [CBK283440] — higher, 100%
- CC(c1cccc(F)c1)n1cc(C(=O)NCCc2ccco2)nn1 (stereo not drawn) [CBK283582] — higher, 102%
- CCN(CC)C(=O)c1ccsc1NS(=O)(=O)c1cccc2cccnc12 [CBK042317] — lower, 87.1%
- COc1ccc(C(=O)N2CCC3(CCCN(C(=O)CN4C(=O)CSC4=O)C3)C2)cc1OC (stereo not drawn) [CBK137088] — higher, 115%
- CCOc1ccc(CSC2=NCCN2)cc1Cl [CBK027449C] — higher, 92.4%
- CC(C)C1c2cccn2CCN1C(=O)c1cc(-c2ccccn2)n[nH]1 (stereo not drawn) [CBK283223] — lower, 81.9%
- O=C(c1cccnc1)N1CCCC(c2cc3ccccc3cn2)C1 (stereo not drawn) [CBK285154] — higher, 98.6%
- COc1ccc(C(=O)C2=C(O)C(=O)N(CCCN(C)C)C2c2ccc(Cl)c(Cl)c2)cc1 (stereo not drawn) [CBK264723] — higher, 94.4%
- CC(=O)c1ccc(-c2ccc(/C=C\c3[nH]c(=O)[nH]c(=O)c3[N+](=O)[O-])o2)cc1 [CBK267038] — lower, 90.7%
- Cc1ccc2oc(CN3CCC(O)(c4cccnc4)CC3)c(C)c2c1 [CBK282816] — higher, 94.7%
- Cc1ccnc(SCc2c(Cl)cccc2[N+](=O)[O-])n1 [CBK269632] — lower, 86%
- O=C1Nc2c(cnn2-c2ccc(Cl)cc2)C2=NCCN12 [CBK284341] — higher, 93.1%
- COc1ccc(NC(=S)NCCCN(C)C)cc1 [CBK264292] — higher, 96.2%
- CC(C)c1ccc(-c2cncc(NCCCO)n2)cc1 [CBK037937] — higher, 106%
- COc1cc(Nc2nc(-c3ccc4[nH]ccc4c3)cn3ccnc23)cc(OC)c1OC [CBK038069] — higher, 95.5%
- CC(Sc1ccc(Cl)cc1)C(=O)Nc1ccc(CSc2ccccc2)cc1 (stereo not drawn) [CBK264670] — higher, 93.2%
- CC(NS(=O)(=O)c1ccc(CCC(=O)O)cc1)c1ccccc1 (stereo not drawn) [CBK267058] — lower, 88.1%
- COc1cccc(CN(Cc2ccco2)Cc2cnc(C)n2C)c1 [CBK282494] — higher, 93.6%
- O=C(CSc1nc(Nc2ccccc2)nc(N2CCOCC2)n1)Nc1ccc2c(c1)OCO2 [CBK268320] — higher, 96.5%
- Cc1nc2c(cc(OCC(O)COc3ccc(C#N)cc3)c3ccsc32)s1 (stereo not drawn) [CBK296632] — lower, 84.6%
- CN(C)C(=O)c1cccc(S(=O)(=O)NCC2CCCO2)c1 (stereo not drawn) [CBK304867] — higher, 93.2%
- CC(C)C(c1nnnn1Cc1ccccc1)N1CCOCC1 (stereo not drawn) [CBK028054] — higher, 117%
- Cn1c(CN2CCN(c3ccc(C#N)cc3)CC2)nnc1[C@H]1C[C@@H](N)C1 [CBK306985] — higher, 109%
- Cc1ccc(CN(Cc2ncc[nH]2)C2CC(C)(C)NC(C)(C)C2)o1 [CBK283191] — higher, 96%
- CN(Cc1ccccc1)C(=O)c1c[nH]nc1C1CCCN(CC2CCCCC2)C1 (stereo not drawn) [CBK286489] — higher, 94.4%
- COc1ccc(-c2[nH]c(=S)ncc2-c2ccccc2)c(O)c1 [CBK288447] — higher, 91.5%
- Cc1noc(C)c1CC(=O)N1CCC(c2ccccc2)C1 (stereo not drawn) [CBK281959] — higher, 102%
- Cc1cc(=O)n2ncn(CC(=O)NCCOc3ccccc3)c2c1 [CBK305823] — higher, 99.3%
- CCOC(=O)C1CCCCN1Cc1ccc(O)c(OC)c1 (stereo not drawn) [CBK261541] — higher, 96.9%
- N#Cc1cnn(-c2ccc(Cl)cc2Cl)c1N [CBK086125] — lower, 89.2%
- COc1cccc(-c2nn(CCC#N)cc2C(N)=O)c1 [CBK305835] — higher, 95%
- CNCC1CCN(C(=O)c2ccc(Oc3cccnc3)cc2)C1 (stereo not drawn) [CBK304697] — higher, 91.5%
- OCCOc1cccnc1OCCN1CCCC1 [CBK039174] — lower, 85.3%
- COc1ccc(-c2ccc(CCC(=O)O)n2Cc2ccco2)cc1 [CBK265945] — higher, 92.6%
- Cc1cc(Sc2ncnc(N)c2[N+](=O)[O-])ncn1 [CBK267235] — lower, 36.7%
- OC(CNCCc1c[nH]c2ccccc12)COc1cccc2c1CCCC2 (stereo not drawn) [CBK003831] — higher, 93.9%
- Cc1cc(C(=O)COc2cccc(-n3cnnn3)c2)c(C)n1C(C)c1ccccc1 (stereo not drawn) [CBK295643] — lower, 70.2%
- CCN(CC)CCOC1CCc2ccccc2CC1 [CBK016730C] — higher, 96.7%
- OCCN1CC2(CCN(CCN3CCOCC3)CC2)c2ccccc21 [CBK126766] — higher, 91.4%
- CN(C)S(=O)(=O)c1cccc(C(=O)NCc2ccco2)c1 [CBK270135] — higher, 94.7%
- CCOc1cccc2cc(C(=O)N3CCN(Cc4ccccc4)CC3)c(=O)oc12 [CBK270259C] — lower, 74.3%
- CNS(=O)(=O)c1ccc(NC(=O)c2cc(-c3cccnc3)nc3ccc(Br)cc23)cc1 [CBK267776] — higher, 95.5%
- COc1ccc(C(C)C)cc1-c1ccc(NS(C)(=O)=O)c2ccccc12 [CBK083747] — higher, 97.8%
- O=C1NC2(CCc3ccccc31)CCN(Cc1ccncc1)C2 (stereo not drawn) [CBK284610] — higher, 99%
- O=C(O)CNC(=O)c1ccccc1NC(=O)c1ccco1 [CBK286894] — lower, 90.2%
- CC(=O)NC(=S)Nc1ccc(Oc2ccccc2)cc1 [CBK288454] — lower, 86.6%
- N#Cc1cccc(CN2C[C@H](O)C[C@H]2c2nc(-c3ccc4c(c3)OCO4)no2)c1 [CBK288866] — lower, 90%
- COc1cc(/C=N/NC(=O)c2nonc2N)ccc1OC(=O)c1cc(F)c(F)cc1Cl [CBK262380] — lower, 90.1%
- Cc1cc(Cl)ccc1NC(=S)NCCc1ccc(S(N)(=O)=O)cc1 [CBK264888] — lower, 88.5%
- CCN(C)c1c(C)nc2c(OCC(=O)N(C)C)cccn12 [CBK147316] — higher, 107%
- COc1ccccc1CC(=O)NC(CCSC)c1nnc2ccccn12 (stereo not drawn) [CBK306492] — higher, 92.1%
- O=c1c(N2CCC(Sc3ccccc3)CC2)nccn1Cc1ccc(-n2cncn2)cc1 [CBK153655] — the same, 90.9%
- Cc1cccc([C@@H]2CN(Cc3ccccc3)C[C@]23CCCC(=O)N3)n1 [CBK283350] — higher, 107%
- COc1ccc2c(ccn2S(=O)(=O)c2ccc(N3CCNCC3)c(C(F)(F)F)c2)c1 [CBK034033C] — lower, 89.3%
- O=C(CCc1ccco1)N1CCCCC1c1nc2ccccc2[nH]1 (stereo not drawn) [CBK283711] — higher, 99.9%
- CCOC(=O)C1CCCN(CCC(=O)Nc2cc(C)ccc2C)C1 (stereo not drawn) [CBK264287C] — higher, 95.7%

Same assay, conditions: human, hela cells, % viability, bulk resorufin, single well

Point of comparison: `CCC(=O)c1c(O)n(-c2ccccc2)c(=O)[nH]c1=O` [CBK287862], viability at 28.5 h, 10 µM 96.8%. Against it:
- c1cc(-c2ccc3c(c2)COC2(CCNCC2)O3)c2cc[nH]c2c1 [CBK093812] — higher, 108%
- O=C(O)COc1c(Cl)cc(C=C2C(=O)NC(=O)NC2=O)cc1Cl [CBK263377] — lower, 83%
